Data on one compound can be found in paper PMC6269737, “Effect of Honokiol on Cytochrome P450 and UDP-Glucuronosyltransferase Enzyme Activities in Human Liver Microsomes” (Molecules, 2013).

The experiment concerns the target T1, UGT2B7 (Homo sapiens, UniProt P16662).
T1 sequence (P16662 24-529): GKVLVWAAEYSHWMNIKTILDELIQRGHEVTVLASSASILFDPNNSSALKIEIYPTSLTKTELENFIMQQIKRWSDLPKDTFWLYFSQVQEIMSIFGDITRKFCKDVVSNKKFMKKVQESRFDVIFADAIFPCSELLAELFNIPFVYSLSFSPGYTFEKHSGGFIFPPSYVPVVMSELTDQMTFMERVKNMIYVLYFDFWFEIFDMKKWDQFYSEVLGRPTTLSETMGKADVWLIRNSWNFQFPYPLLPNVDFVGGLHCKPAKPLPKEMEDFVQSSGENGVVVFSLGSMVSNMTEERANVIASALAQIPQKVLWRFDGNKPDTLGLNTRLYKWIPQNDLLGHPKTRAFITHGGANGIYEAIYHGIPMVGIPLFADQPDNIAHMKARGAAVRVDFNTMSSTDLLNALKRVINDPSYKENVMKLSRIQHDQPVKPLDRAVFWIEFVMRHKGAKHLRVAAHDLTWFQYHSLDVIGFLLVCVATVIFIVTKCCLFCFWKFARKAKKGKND
Briefly: UGT2B7-catalyzed azidothymidine glucuronidation inhibition in pooled human liver microsomes. The experiment is classed as in vitro ADME. Particulars: 100 μM azidothymidine, pooled HLM (H161). As to the method: The inhibitory potency (IC50 value) of honokiol on UGT1A1-catalyzed 17β-estradiol 3-glucuronidation, UGT1A4-catalyzed trifluoperazine glucuronidation, UGT1A9-catalyzed propofol glucuronidation, and UGT2B7-catalyzed azidothymidine glucuronidation activities was determined in pooled human liver microsomes by LC-MS/MS [48]. […] Reactions were initiated by the addition of UDPGA (final concentration, 5 mM), and incubations were carried out at 37 °C in a shaking water bath for 30 min. Reactions were terminated by adding 100 μL of ice-cold methanol containing an internal standard (500 ng/mL ezetimibe for 17β-estradiol 3-glucuronide and propofol glucuronide; 30 ng/mL meloxicam for trifluoperazine glucuronide and azidothymidine glucuronide). The incubation mixtures were then centrifuged at 13,000 × g for 4 min, followed by dilution of 30 μL of the supernatant with 70 μL of water. An aliquot (5 μL) was injected onto the LC-MS/MS. All incubations were performed in triplicate and the mean values were used. Glucuronides produced from UGT isoform-specific substrates were determined by LC-MS/MS [49].
The apparent kinetic parameters for inhibitory potential (Ki values) were estimated from the fitted curves using Enzyme Kinetics Ver. 1.1 software (Systat Software Inc.).

Usually IC50 stands for the point on the concentration scale where inhibition reaches its midpoint. For `C=CCc1ccc(O)c(-c2ccc(O)c(CC=C)c2)c1` [honokiol, 2-(4-hydroxy-3-prop-2-enyl-phenyl)-4-prop-2-enyl-phenol], the IC50 is 36.4 µM.
